Tests used:
[1] = system: E. coli MG1655 acrR(T32fs); experiment: Growth in MSX medium with 20% (v/v) BMA, single mutation strain; assay type: cell-based, Escherichia coli; conditions: 20% (v/v) BMA added immediately after inoculation
[2] = system: gene transcription in strain 5; experiment: Transcriptome analysis with added BMA, strain 5
Procedure: (§1) Transcriptome analysis was carried out to characterize transcriptional activity in mutant microorganisms using standard methods.
(§2) Sample Preparation • 1) Streak strains onto fresh MSX agar (15 g/L) plates directly from the cryostocks and incubate overnight at 37° C. • 2) Isolate single colonies and inoculate pre-cultures in MSX, using 50 ml shake flasks. Incubate overnight at 37° C. and 250 rpm. • 3) Inoculate cultures in MSX to an initial OD600 of 0.05, using 250 mL pyrex shake flasks with 24/29 neck join. Incubate at 37° C. and 250 rpm. Do 4 biological replicates (3 replicates for sequencing plus one backup)—4 flasks per strain. • 4) Seal shake flasks with sterile Suba seals. To monitor OD, take samples using a sterile syringe and needle after first swabbing the Suba seals with 70% ethanol. Monitor OD. • 5) When OD reaches 0.3, collect first sample for RNA extraction (“before” sample) into a pre-chilled falcon. Keep samples on ice. • 6) Immediately after, add 20% (v/v) BMA. Re-incubate cultures. • 7) Quickly process the samples according to the RNeasy kit protocol, until step 6 of protocol 1. Always keep samples on ice and store it at −80° C. until further use, if possible, flash freeze in liquid nitrogen it before storing. • 8) One hour after the first sample collection/BMA addition, collect the second sample for RNA extraction (“after” sample). Proceed as explained before. • 9) Continue to monitor the OD until the cultures reach 24 h. • To summarise, each strain tested will have 6 samples to send for sequencing, 3 collected right before the addition and 3 collected one hour after, plus 1 “back-up” for before and after, in case something goes wrong during extraction (8 samples total). Besides the WT strain with the addition of BMA, samples were also collected from a WT culture with no BMA, one hour after reaching OD of 0.3, as a control.
(§3) Transcription was compared for a double mutant and the wild-type in the presence and absence of BMA relative to the level in the wild type in the absence of BMA. For the avoidance of doubt the level in the table is the ratio of the level in the strain under the BMA exposure relative to the level in the wild type in the absence of added BMA.

[3] = system: gene transcription in strain 18; experiment: Transcriptome analysis with added BMA, strain 18
Procedure: as §1, §2, §3

[4] = system: gene transcription in strain 23; experiment: Transcriptome analysis with added BMA, strain 23
Procedure: as §1, §2, §3

[5] = system: gene transcription in double mutant; experiment: Transcriptome analysis with added BMA, double mutant
Procedure: as §1, §2, §3

[6] = system: E. coli BW25113 isolate 3-rob(R156H) ilvN(C41Y) phoP(L11F) acrB(V448L) acrR(indels); experiment: Growth kinetics of isolated strain 3 with 20% v/v BMA
[7] = system: E. coli BW25113 isolate 5-soxR(Leu139X), 580116(G > T) acrR(indels); experiment: Growth kinetics of isolated strain 5 with 20% v/v BMA
[8] = system: E. coli BW25113 isolate 21-marR(V84G) rpoC(R1075C) rpoC(A787V) ompR(R15S) acrB(V901l) acrR(indels); experiment: Growth kinetics of isolated strain 21 with 20% v/v BMA
[9] = system: E. coli BW25113 isolate 22-rob(R156H) rpoB(T1037P) groL(P279L) acrR(49Yfs) 1197659(C > A); experiment: Growth kinetics of isolated strain 22 with 20% v/v BMA

Structure (SMILES): C=C(C)C(=O)OCCCC [BMA, butyl 2-methylprop-2-enoate]
- Growth in the presence of BMA [1]: able to grow
- IdhA transcription level relative to wild type without BMA [2]: 18.24
- acrA transcription level relative to wild type without BMA [2]: 6.28
- acrB transcription level relative to wild type without BMA [2]: 7.49
- adiY transcription level relative to wild type without BMA [2]: 24.79
- ariR transcription level relative to wild type without BMA [2]: 21.79
- asr transcription level relative to wild type without BMA [2]: 160.42
- bssR transcription level relative to wild type without BMA [2]: 20.35
- ibpA transcription level relative to wild type without BMA [2]: 43.39
- ibpB transcription level relative to wild type without BMA [2]: 174.50
- narG transcription level relative to wild type without BMA [2]: 47.85
- nirB transcription level relative to wild type without BMA [2]: 34.19
- nirD transcription level relative to wild type without BMA [2]: 16.69
- pspA transcription level relative to wild type without BMA [2]: 23.32
- pspB transcription level relative to wild type without BMA [2]: 16.87
- pspD transcription level relative to wild type without BMA [2]: 14.10
- pspc transcription level relative to wild type without BMA [2]: 16.55
- raiA transcription level relative to wild type without BMA [2]: 20.11
- rmf transcription level relative to wild type without BMA [2]: 15.45
- soxS transcription level relative to wild type without BMA [2]: 41.81
- spy transcription level relative to wild type without BMA [2]: 20.88
- ybfA transcription level relative to wild type without BMA [2]: 20.19
- ybhG transcription level relative to wild type without BMA [2]: 18.33
- ybiH transcription level relative to wild type without BMA [2]: 15.30
- ydgU transcription level relative to wild type without BMA [2]: 48.46
- yhjx transcription level relative to wild type without BMA [2]: 105.59
- yibT transcription level relative to wild type without BMA [2]: 29.57
- ymgA transcription level relative to wild type without BMA [2]: 16.41
- ymgC transcription level relative to wild type without BMA [2]: 17.15
- ynfM transcription level relative to wild type without BMA [2]: 40.65
- yohk transcription level relative to wild type without BMA [2]: 16.04
- IdhA transcription level relative to wild type without BMA [3]: 56.74
- acrA transcription level relative to wild type without BMA [3]: 6.47
- acrB transcription level relative to wild type without BMA [3]: 10.12
- adiY transcription level relative to wild type without BMA [3]: 21.13
- ariR transcription level relative to wild type without BMA [3]: 25.19
- asr transcription level relative to wild type without BMA [3]: 74.22
- bssR transcription level relative to wild type without BMA [3]: 134.14
- ibpA transcription level relative to wild type without BMA [3]: 74.55
- ibpB transcription level relative to wild type without BMA [3]: 158.35
- narG transcription level relative to wild type without BMA [3]: 25.46
- nirB transcription level relative to wild type without BMA [3]: 23.98
- nirD transcription level relative to wild type without BMA [3]: 34.98
- pspA transcription level relative to wild type without BMA [3]: 20.71
- pspB transcription level relative to wild type without BMA [3]: 20.94
- pspD transcription level relative to wild type without BMA [3]: 18.60
- pspc transcription level relative to wild type without BMA [3]: 21.37
- raiA transcription level relative to wild type without BMA [3]: 44.16
- rmf transcription level relative to wild type without BMA [3]: 20.96
- soxS transcription level relative to wild type without BMA [3]: 1.17
- spy transcription level relative to wild type without BMA [3]: 4.36
- ybfA transcription level relative to wild type without BMA [3]: 24.95
- ybhG transcription level relative to wild type without BMA [3]: 18.85
- ybiH transcription level relative to wild type without BMA [3]: 12.75
- ydgU transcription level relative to wild type without BMA [3]: 28.47
- yhjx transcription level relative to wild type without BMA [3]: 251.44
- yibT transcription level relative to wild type without BMA [3]: 83.81
- ymgA transcription level relative to wild type without BMA [3]: 11.97
- ymgC transcription level relative to wild type without BMA [3]: 12.62
- ynfM transcription level relative to wild type without BMA [3]: 55.40
- yohk transcription level relative to wild type without BMA [3]: 14.54
- IdhA transcription level relative to wild type without BMA [4]: 28.20
- acrA transcription level relative to wild type without BMA [4]: 6.50
- acrB transcription level relative to wild type without BMA [4]: 7.66
- adiY transcription level relative to wild type without BMA [4]: 6.73
- ariR transcription level relative to wild type without BMA [4]: 14.82
- asr transcription level relative to wild type without BMA [4]: 123.20
- bssR transcription level relative to wild type without BMA [4]: 71.61
- ibpA transcription level relative to wild type without BMA [4]: 31.35
- ibpB transcription level relative to wild type without BMA [4]: 41.67
- narG transcription level relative to wild type without BMA [4]: 42.52
- nirB transcription level relative to wild type without BMA [4]: 25.46
- nirD transcription level relative to wild type without BMA [4]: 25.17
- pspA transcription level relative to wild type without BMA [4]: 32.81
- pspB transcription level relative to wild type without BMA [4]: 27.16
- pspD transcription level relative to wild type without BMA [4]: 28.18
- pspc transcription level relative to wild type without BMA [4]: 28.45
- raiA transcription level relative to wild type without BMA [4]: 31.13
- rmf transcription level relative to wild type without BMA [4]: 8.80
- soxS transcription level relative to wild type without BMA [4]: 30.40
- spy transcription level relative to wild type without BMA [4]: 4.79
- ybfA transcription level relative to wild type without BMA [4]: 29.99
- ybhG transcription level relative to wild type without BMA [4]: 20.82
- ybiH transcription level relative to wild type without BMA [4]: 16.75
- ydgU transcription level relative to wild type without BMA [4]: 50.45
- yhjx transcription level relative to wild type without BMA [4]: 596.44
- yibT transcription level relative to wild type without BMA [4]: 42.63
- ymgA transcription level relative to wild type without BMA [4]: 8.84
- ymgC transcription level relative to wild type without BMA [4]: 7.42
- ynfM transcription level relative to wild type without BMA [4]: 41.92
- yohk transcription level relative to wild type without BMA [4]: 10.04
- acrA transcription level relative to wild type without BMA ([5]; LM double mutant): 5.13
- acrB transcription level relative to wild type without BMA ([5]; LM double mutant): 4.99
- IdhA transcription level relative to wild type without BMA ([5]; double mutant): 30.42
- adiY transcription level relative to wild type without BMA ([5]; double mutant): 10.80
- ariR transcription level relative to wild type without BMA ([5]; double mutant): 8.91
- asr transcription level relative to wild type without BMA ([5]; double mutant): 711.06
- bssR transcription level relative to wild type without BMA ([5]; double mutant): 5.47
- ibpA transcription level relative to wild type without BMA ([5]; double mutant): 80.35
- ibpB transcription level relative to wild type without BMA ([5]; double mutant): 672.54
- narG transcription level relative to wild type without BMA ([5]; double mutant): 3.23
- nirB transcription level relative to wild type without BMA ([5]; double mutant): 3.28
- nirD transcription level relative to wild type without BMA ([5]; double mutant): 3.57
- pspA transcription level relative to wild type without BMA ([5]; double mutant): 27.60
- pspB transcription level relative to wild type without BMA ([5]; double mutant): 11.73
- pspD transcription level relative to wild type without BMA ([5]; double mutant): 10.00
- pspc transcription level relative to wild type without BMA ([5]; double mutant): 11.09
- raiA transcription level relative to wild type without BMA ([5]; double mutant): 36.36
- rmf transcription level relative to wild type without BMA ([5]; double mutant): 17.63
- soxS transcription level relative to wild type without BMA ([5]; double mutant): 20.93
- spy transcription level relative to wild type without BMA ([5]; double mutant): 99.47
- ybfA transcription level relative to wild type without BMA ([5]; double mutant): 59.92
- ybhG transcription level relative to wild type without BMA ([5]; double mutant): 10.78
- ybiH transcription level relative to wild type without BMA ([5]; double mutant): 7.73
- ydgU transcription level relative to wild type without BMA ([5]; double mutant): 188.87
- yhjx transcription level relative to wild type without BMA ([5]; double mutant): 2.32
- yibT transcription level relative to wild type without BMA ([5]; double mutant): 43.57
- ymgA transcription level relative to wild type without BMA ([5]; double mutant): 9.97
- ymgC transcription level relative to wild type without BMA ([5]; double mutant): 11.68
- ynfM transcription level relative to wild type without BMA ([5]; double mutant): 29.92
- yohk transcription level relative to wild type without BMA ([5]; double mutant): 19.51
- Growth rate [6]: 0.566 ± 0.010 h⁻¹
- Lag time [6]: 4 h
- Max cell concentration [6]: 0.790 ± 0.076 g/L
- Growth rate [7]: 0.625 ± 0.052 h⁻¹
- Lag time [7]: 5 h
- Max cell concentration [7]: 0.597 ± 0.096 g/L
- Growth rate [8]: 0.703 ± 0.030 h⁻¹
- Lag time [8]: 5 h
- Max cell concentration [8]: 0.438 ± 0.022 g/L
- Growth rate [9]: 0.701 ± 0.015 h⁻¹
- Lag time [9]: 4 h
- Max cell concentration [9]: 0.523 ± 0.024 g/L

Source: US11781160B2, “Methods for the production of methacrylates” (priority 2018, dated 2023)
